Measured values: publication PMC11345828 (Journal of Medicinal Chemistry, 2024)
Where “and” joins values, the source holds several entries; their conditions need not be identical. Equal entries are not always repeated. Marks after values point to notes of the source that are not given here.

Assays:
[1] = tested on: K562 cell line; assay: cells; settings: Homo sapiens, K562, read-out: K562 GI50
Description: (§1) NCI-H1048 were cultured in custom medium prepared by PanBioTech containing DMEM/F12 + 5% fetal calf serum, 0.005 mg/mL insulin, 0.01 mg/mL transferrin, 30 nM sodium selenite, 10 nM hydrocortisone, 10 nM β-estradiol and […] 2 mM L-glutamine.
(§2) Suspension cells were plated immediately before compound addition. Adherent cell lines were incubated overnight at 37 °C in a tissue culture incubator prior to compound addition. Compounds were added in triplicates using an HP D300e Digital Dispenser (Hewlett-Packard) or manually at the concentrations indicated and total volumes were normalized using dimethyl sulfoxide (DMSO) backfill, with final DMSO concentration of 0.5%. Control wells were treated with DMSO only.

[2] = tested on: NCI-H929 cell line; assay: cells; settings: Homo sapiens, NCI-H929, read-out: NCI-H929 GI50
Description: as §1, §2

[3] = Mouse IV PK; settings: for AUC/Dose / CL / improvement in the mouse IV clearance from (M)-18: mouse IV; for AUC/Dose: dose normalized; for clearance: mouse, plasma, iv; for improvement in the mouse IV clearance from (M)-18: relative to (M)-18
Description: (§3) For PK analysis, mice and dogs were administered intravenously with compound formulated either in 10% ethanol and 10% Cremophor EL for mice or in 50% ethanol and 50% PEG500 for dogs. Plasma samples were obtained at predefined time points and compound concentrations in plasma were measured by quantitative HPLC-MS/MS using an internal standard. Calibration and quality control samples were prepared using blank plasma from untreated animals. Samples were precipitated with acetonitrile and injected into a HPLC system (Agilent 1200). […] The HPLC was interfaced by ESI operated in positive ionization mode to a triple quadrupole mass spectrometer (6500+ Triple Quad System, SCIEX) operated in multiple reaction monitoring mode. Chromatograms were analyzed with Analyst (SCIEX) and pharmacokinetic parameters were calculated by noncompartmental analysis using proprietary software.

[4] = Dog IV PK
Description: as §3

Row | Compound | GI50 [1] [µM] | GI50 [2] [nM] | clearance ([3]; 25 mg/kg) [mL/min/kg] | CL ([3]; dosed at 25 mg/kg) [mL/min/kg] | AUC/Dose ([3]; dosed at 20 mg/kg) | clearance ([3]; 20 mg/kg) [mL/min/kg] | other results
1 | Cc1cc(OCCCc2c3n(c4c(-c5c(C)nn(C)c5C)c(Cl)ccc24)[C@H](C)CN(c2cccc4cc(C(=O)O)n(C)c24)C3=O)cc(C)c1Cl [Compound 10, (R)-7-(7-Chloro-10-(3-(4-chloro-3,5-dimethylphenoxy)propyl)-4-methyl-1-oxo-6-(1,3,5-trimethyl-1H-pyrazol-4-yl)-3,4-dihydropyrazino[1,2-a]indol-2(1H)-yl)-1-methyl-1H-indole-2-carboxylic Acid] | > 12.5 | 187 ± 78 |  |  |  |  | 
2 | COc1cc(N2C[C@@H](C)n3c(c(CCCOc4cc(C)c(Cl)c(C)c4)c4ccc(Cl)c(-c5c(C)nn(C)c5C)c43)C2=O)c2c(cc(C(=O)O)n2C)c1OC [Compound 18, (M,R)-7-(7-Chloro-10-(3-(4-chloro-3,5-dimethylphenoxy)propyl)-4-methyl-1-oxo-6-(1,3,5-trimethyl-1H-pyrazol-4-yl)-3,4-dihydropyrazino[1,2-a]indol-2(1H)-yl)-4,5-dimethoxy-1-methyl-1H-indole-2-carboxylic Acid] |  |  | 70 |  |  |  | AUC/Dose ([3]; dosed at 25 mg/kg): 252 nM*h/mpk
3 | COc1cc(N2C[C@@H](C)n3c(c(CCCOc4cc(C)c(Cl)c(C)c4)c4ccc(Cl)c(-c5c(C)ncnc5C)c43)C2=O)c2c(cc(C(=O)O)n2C)c1OC [Compound 19, (R)-7-(7-Chloro-10-(3-(4-chloro-3,5-dimethylphenoxy)propyl)-6-(4,6-dimethylpyrimidin-5-yl)-4-methyl-1-oxo-3,4-dihydropyrazino[1,2-a]indol-2(1H)-yl)-4,5-dimethoxy-1-methyl-1H-indole-2-carboxylic Acid] | 7 | 32 ± 14 | 43 | 43 |  |  | AUC/Dose ([3]; dosed at 25 mg/kg, 25 mg/kg): 499 nM*h/mpk and 499^c nM*h/mpk; improvement in the mouse IV clearance from (M)-18 [3]: 2 fold
4 | COc1cc(N2C[C@@H](C)n3c(c(CCCOc4cc(C)c(Cl)c(C)c4)c4ccc(Cl)c(-c5c(C)nc(C)nc5C)c43)C2=O)c2c(cc(C(=O)O)n2C)c1OC [Compound 20, (R)-7-(7-Chloro-10-(3-(4-chloro-3,5-dimethylphenoxy)propyl)-4-methyl-1-oxo-6-(2,4,6-trimethylpyrimidin-5-yl)-3,4-dihydropyrazino[1,2-a]indol-2(1H)-yl)-4,5-dimethoxy-1-methyl-1H-indole-2-carboxylic Acid] | 6.8 ± 3.3 | 33 ± 14 | 45 | 45 |  |  | AUC/Dose ([3]; dosed at 25 mg/kg, 25 mg/kg): 385 nM*h/mpk and 385^c nM*h/mpk; improvement in the mouse IV clearance from (M)-18 [3]: 2 fold
5 | COCCOc1cc(N2C[C@@H](C)n3c(c(CCCOc4cc(C)c(Cl)c(C)c4)c4ccc(Cl)c(-c5c(C)ncnc5C)c43)C2=O)c2c(cc(C(=O)O)n2C)c1OC [Compound 21, (R)-7-(7-Chloro-10-(3-(4-chloro-3,5-dimethylphenoxy)propyl)-6-(4,6-dimethylpyrimidin-5-yl)-4-methyl-1-oxo-3,4-dihydropyrazino[1,2-a]indol-2(1H)-yl)-4-methoxy-5-(2-methoxyethoxy)-1-methyl-1H-indole-2-carboxylic Acid] | > 12 | 30 ± 13 | 58 | 58 |  |  | AUC/Dose ([3]; dosed at 25 mg/kg): 290^c nM*h/mpk
6 | COc1c(OCC2CCOCC2)cc(N2C[C@@H](C)n3c(c(CCCOc4cc(C)c(Cl)c(C)c4)c4ccc(Cl)c(-c5c(C)ncnc5C)c43)C2=O)c2c1cc(C(=O)O)n2C [Compound 22, (R)-7-(7-Chloro-10-(3-(4-chloro-3,5-dimethylphenoxy)propyl)-6-(4,6-dimethylpyrimidin-5-yl)-4-methyl-1-oxo-3,4-dihydropyrazino[1,2-a]indol-2(1H)-yl)-4-methoxy-1-methyl-5-((tetrahydro-2H-pyran-4-yl)methoxy)-1H-indole-2-carboxylic Acid] |  |  | 7 |  | 2830^d nM*h/mpk | 7 | 
7 | COc1c(OC[C@H]2CCCO2)cc(N2C[C@@H](C)n3c(c(CCCOc4cc(C)c(Cl)c(C)c4)c4ccc(Cl)c(-c5c(C)ncnc5C)c43)C2=O)c2c1cc(C(=O)O)n2C [Compound 24, 7-((R)-7-Chloro-10-(3-(4-chloro-3,5-dimethylphenoxy)propyl)-6-(4,6-dimethylpyrimidin-5-yl)-4-methyl-1-oxo-3,4-dihydropyrazino[1,2-a]indol-2(1H)-yl)-4-methoxy-1-methyl-5-(((R)-tetrahydrofuran-2-yl)methoxy)-1H-indole-2-carboxylic Acid] |  |  | 15 | 15 |  |  | AUC/Dose ([3]; dosed at 25 mg/kg): 1476^c nM*h/mpk
8 | COCCOc1cc(N2C[C@@H](C)n3c(c(CCCOc4cc(C)c(Cl)c(C)c4)c4ccc(Cl)c(-c5c(C)nc(C)nc5C)c43)C2=O)c2c(cc(C(=O)O)n2C)c1OC [Compound 25, (R)-7-(7-Chloro-10-(3-(4-chloro-3,5-dimethylphenoxy)propyl)-4-methyl-1-oxo-6-(2,4,6-trimethylpyrimidin-5-yl)-3,4-dihydropyrazino[1,2-a]indol-2(1H)-yl)-4-methoxy-5-(2-methoxyethoxy)-1-methyl-1H-indole-2-carboxylic Acid] | > 12 | 22 ± 10 | 51 | 51 |  |  | AUC/Dose ([3]; dosed at 25 mg/kg): 334^c nM*h/mpk; AUC/Dose ([4]; dosed at 0.25 mg/kg): 1324 nM*h/mpk; CL ([4]; dosed at 0.25 mg/kg): 16 mL/min/kg; CL (% hep blood flow) ([4]; dosed at 0.25 mg/kg): 50 % hep blood flow
9 | COc1c(OC[C@@H]2CCCO2)cc(N2C[C@@H](C)n3c(c(CCCOc4cc(C)c(Cl)c(C)c4)c4ccc(Cl)c(-c5c(C)nc(C)nc5C)c43)C2=O)c2c1cc(C(=O)O)n2C [Compound 27, 7-((R)-7-Chloro-10-(3-(4-chloro-3,5-dimethylphenoxy)propyl)-6-(2,4,6-trimethylpyrimidin-5-yl)-4-methyl-1-oxo-3,4-dihydropyrazino[1,2-a]indol-2(1H)-yl)-4-methoxy-1-methyl-5-(((S)-tetrahydrofuran-2-yl)methoxy)-1H-indole-2-carboxylic Acid] |  |  | 8.9 |  | 2190^d nM*h/mpk | 8.9 | AUC/Dose ([4]; dosed at 0.9 mg/kg): 2100 nM*h/mpk; CL ([4]; dosed at 0.9 mg/kg): 8.9 mL/min/kg; CL (% hep blood flow) ([4]; dosed at 0.9 mg/kg): 29 % hep blood flow
10 | COc1c(OC[C@H]2CCCO2)cc(N2C[C@@H](C)n3c(c(CCCOc4cc(C)c(Cl)c(C)c4)c4ccc(Cl)c(-c5c(C)nc(C)nc5C)c43)C2=O)c2c1cc(C(=O)O)n2C [Compound 28, 7-((R)-7-Chloro-10-(3-(4-chloro-3,5-dimethylphenoxy)propyl)-6-(2,4,6-trimethylpyrimidin-5-yl)-4-methyl-1-oxo-3,4-dihydropyrazino[1,2-a]indol-2(1H)-yl)-4-methoxy-1-methyl-5-(((R)-tetrahydrofuran-2-yl)methoxy)-1H-indole-2-carboxylic Acid] |  |  | 8.4 |  | 2510^d nM*h/mpk | 8.4 | 
11 | COc1c(O[C@H]2CCOC2)cc(N2C[C@@H](C)n3c(c(CCCOc4cc(C)c(Cl)c(C)c4)c4ccc(Cl)c(-c5c(C)nc(C)nc5C)c43)C2=O)c2c1cc(C(=O)O)n2C [Compound 29, 7-((R)-7-Chloro-10-(3-(4-chloro-3,5-dimethylphenoxy)propyl)-4-methyl-1-oxo-6-(2,4,6-trimethylpyrimidin-5-yl)-3,4-dihydropyrazino[1,2-a]indol-2(1H)-yl)-4-methoxy-1-methyl-5-(((S)-tetrahydrofuran-3-yl)oxy)-1H-indole-2-carboxylic Acid] |  |  | 19 |  |  |  | AUC/Dose ([3]; dosed at 5 mg/kg): 1858^e nM*h/mpk; clearance ([3]; 5 mg/kg): 19 mL/min/kg; AUC/Dose ([4]; dosed at 0.9 mg/kg): 1808 nM*h/mpk; CL ([4]; dosed at 0.9 mg/kg): 12 mL/min/kg; CL (% hep blood flow) ([4]; dosed at 0.9 mg/kg): 38 % hep blood flow
12 | COc1c(O[C@@H]2CCOC2)cc(N2C[C@@H](C)n3c(c(CCCOc4cc(C)c(Cl)c(C)c4)c4ccc(Cl)c(-c5c(C)nc(C)nc5C)c43)C2=O)c2c1cc(C(=O)O)n2C [Compound 30, 7-((R)-7-Chloro-10-(3-(4-chloro-3,5-dimethylphenoxy)propyl)-4-methyl-1-oxo-6-(2,4,6-trimethylpyrimidin-5-yl)-3,4-dihydropyrazino[1,2-a]indol-2(1H)-yl)-4-methoxy-1-methyl-5-(((R)-tetrahydrofuran-3-yl)oxy)-1H-indole-2-carboxylic Acid] |  |  | 13 |  | 1425^d nM*h/mpk | 13 | 
13 | CCOc1c(O[C@H]2CCOC2)cc(N2C[C@@H](C)n3c(c(CCCOc4cc(C)c(Cl)c(C)c4)c4ccc(Cl)c(-c5c(C)nc(C)nc5C)c43)C2=O)c2c1cc(C(=O)O)n2C [Compound 31, 7-((R)-7-Chloro-10-(3-(4-chloro-3,5-dimethylphenoxy)propyl)-4-methyl-1-oxo-6-(2,4,6-trimethylpyrimidin-5-yl)-3,4-dihydropyrazino[1,2-a]indol-2(1H)-yl)-4-ethoxy-1-methyl-5-(((S)-tetrahydrofuran-3-yl)oxy)-1H-indole-2-carboxylic Acid] |  |  | 8.7 |  | 2465^d nM*h/mpk | 8.7 | 
14 | CCOc1c(OCC2CCOCC2)cc(N2C[C@@H](C)n3c(c(CCCOc4cc(C)c(Cl)c(C)c4)c4ccc(Cl)c(-c5c(C)nc(C)nc5C)c43)C2=O)c2c1cc(C(=O)O)n2C [Compound 32, (R)-7-(7-Chloro-10-(3-(4-chloro-3,5-dimethylphenoxy)propyl)-4-methyl-1-oxo-6-(2,4,6-trimethylpyrimidin-5-yl)-3,4-dihydropyrazino[1,2-a]indol-2(1H)-yl)-4-ethoxy-1-methyl-5-((tetrahydro-2H-pyran-4-yl)methoxy)-1H-indole-2-carboxylic Acid] |  |  | 3.7 |  | 4930^d nM*h/mpk | 3.7 | 
